Data on four molecules can be found in patent US20260009799A1, “CA-IX TARGETING FLUORESCENT PROBES” (BRACCO IMAGING S.P.A., priority 2022, published 2026).

The nature of series [1]: Optical characterization (excitation/emission maxima, molar extinction coefficient). It counts as physicochemical. The protocol:
A dual-beam UV-VIS spectrophotometer (Lambda 40, Perkin Elmer) was used to determine the absorbance (Abs) of the compounds of the invention. Emission/excitation (Em/Ex) spectra were carried out on a spectrofluorometer (FluoroLog-3 1IHR-320, Horiba Jobin Yvon) equipped with an F-3018 integrating sphere accessory. The measurements were performed using an excitation wavelength at maximum absorbance of different dyes, and the sample was excited with a 450 W Xenon light Source. Detection was performed by photomultiplier tubes (PMT-NIR) cooled detector or by TBX-04 detector. Dye solutions were carefully prepared to have an absorbance lower than 0.1 (optical densities) to minimize re-absorption phenomena.
The compounds of the invention were characterized in terms of their optical properties in vitro in aqueous medium (i.e., water/PBS pH 7.4) and in a clinical chemistry control serum (Seronorm, Sero SA), mimicking the chemical composition and optical properties of human serum. All solutions were freshly prepared. In particular, the compounds of the invention are characterized by absorption maxima comprised in the range from about 750 nm to 780 nm.
The excitation and emission maxima in PBS and Seronorm and the molar extinction coefficient (ε) in water of representative compounds of formula (I) are shown in Table I in comparison with the known CA-IX targeting fluorescent probe named Hypoxyfluor-1 (HF-1, for instance disclosed in Bioconjugate Chem 2018, 29, 3320-3331). […] Moreover, the extinction coefficients were higher than 200,000 mM^−1 cm^−1 for all compounds.

Test in series [2]: as above
It counts as physicochemical. Conditions: in water.

For series [3], the system named is HT-29 excised tumors and tissues. The experiment in a line: Ex vivo biodistribution in excised tumors and organs. The arrangement: species or system mice. As to conditions: 1 nmol; for Organ-to-muscle ratio, intestine (mean ± SD) / Organ-to-muscle ratio, kidney (mean ± SD) / Organ-to-muscle ratio, liver (mean ± SD) / Organ-to-muscle ratio, skin (mean ± SD) / Organ-to-muscle ratio, spleen (mean ± SD) / Organ-to-muscle ratio, stomach (mean ± SD): ex vivo, 24 hours after administration; for ex vivo TBR (mean ± SD), HT-29 tumor: samples collected 24 hours after administration, tumor vs hind limb muscle. The protocol:
The ex vivo biodistribution of the representative compounds 1 and 2 and of the reference compounds (at 1 nmol/mouse) was evaluated in HT-29 excised tumors and tissues at the end of the in vivo OI sessions 24 hours post intravenous administration. At the end of the in vivo experiment, animals were euthanized by overdose of gaseous anesthesia followed by cervical dislocation. Tumor tissue, muscle, and other organs of interest were removed for ex vivo fluorescent signal measurements. The fluorescence signal intensity was measured by the IVIS Spectrum system. Regions of interest (ROIs) were drawn around each organ and tumor using the Living Image Software (PerkinElmer) and evaluating signal intensity in the tissues (expressed as Average Radiant Efficiency). The ratio between the fluorescence signal in the organs and tumor was then calculated to assess the contrast to hind limb muscle (representing the background).

The target in series [4] is T1, human serum albumin (HSA) (Homo sapiens, UniProt P02768).
T1 construct: purchased Sigma-Aldrich A9511
T1 sequence (P02768 25-609): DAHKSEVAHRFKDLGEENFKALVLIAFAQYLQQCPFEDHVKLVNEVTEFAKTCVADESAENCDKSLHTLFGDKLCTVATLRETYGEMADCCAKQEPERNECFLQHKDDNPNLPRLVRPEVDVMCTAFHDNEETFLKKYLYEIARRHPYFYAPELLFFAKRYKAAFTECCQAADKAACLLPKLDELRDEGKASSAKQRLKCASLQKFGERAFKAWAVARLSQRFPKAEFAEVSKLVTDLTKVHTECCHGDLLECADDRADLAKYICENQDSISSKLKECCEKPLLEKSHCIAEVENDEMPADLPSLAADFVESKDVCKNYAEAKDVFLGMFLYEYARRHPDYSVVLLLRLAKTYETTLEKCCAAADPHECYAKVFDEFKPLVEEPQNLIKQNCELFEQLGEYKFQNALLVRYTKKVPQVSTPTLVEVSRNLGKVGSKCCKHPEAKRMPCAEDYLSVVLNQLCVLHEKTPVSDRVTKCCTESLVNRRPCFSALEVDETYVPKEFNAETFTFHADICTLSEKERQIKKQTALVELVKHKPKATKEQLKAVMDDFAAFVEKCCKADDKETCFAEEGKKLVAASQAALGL
The experiment in a line: Binding to albumin (ultrafiltration, absorbance of filtrates). Conditions: 4.76 μM probe in PBS, 10 KDa cut off ultrafiltration, 25° C.; read-out: HSA affinity (KA, M^−1) (converted). It counts as in vitro ADME. On the procedure:
The affinity of the probes for human serum albumin (HSA) was determined to assess the influence of structural features on their albumin binding properties. Briefly, HSA (A9511, Sigma-Aldrich) was prepared in a […] stock solution in PBS and used to obtain a series of dilutions in PBS (0, 9.52·10^−7, 4.76·10^−6, 9.52·10^−6, 1.90·10^−5, 3.81·10^−5, 5.71·10^−5, 9.52·10^−5, 1.43·10^−4, 1.90·10^−4, 2.86·10^−4, 3.81·10^−4 M), in presence of 4.76 μM of the CA-IX-targeting probe (prepared from a 50 μM stock solution in PBS), in a total volume of 0.525 mL. The samples were centrifuged (10000 g for 30 min at 25° C.) in a Microcon device (10 KDa MW cut off, Amicon Ultra-0.5 Centrifugal Filter Unit with Ultracel-10 membrane) and the absorbance measurements of the filtrates were obtained with the spectrophotometer at the maximum absorbance wavelength of the fluorophore.
Data analysis was performed by fitting the raw data, using Microsoft Excel Solver, with the equation:
where ΔA/b=Absorbance measured (b=1 cm), KRL=KA calculated by fitting, Δε·Rt are calculated by fitting, and [L]=HSA concentration. ΔA/b values were experimentally obtained by subtracting the absorbance of “0 HSA sample” to the absorbance of each other sample.

The test system of series [5] is hypoxic HT-29 colorectal tumor, subcutaneously induced. The experiment in a line: In vivo tumor optical imaging (IVIS Spectrum), tumor-to-background ratio. Set-up: species or system mice. As to conditions: 24 hours after intravenous administration, 1 nmol/mouse, tumor vs hind limb muscle. On the procedure: HT-29 cells were collected and washed once with serum-free medium. Five million HT-29 cells were suspended in 0.1 mL serum-free medium and injected subcutaneously in the right flank of 5 weeks old mice. Tumor development was followed by caliper measurement twice a week, from 7 days after inoculation. Tumor volume was calculated according to the formula: (L*W2)/2, where L and W are the maximum length and width of the tumor.
Optical Imaging experiments on HT-29 tumor bearing animals were performed after administration of Reference 1, 2 and 3, and compounds 1 and 2, all at a dose of 1 nmol/mouse in an administration volume of 0.1 mL (corresponding to about 5 mL/kg, considering a 20 g-mouse) at an injection rate of about 1 mL/min, by the IVIS Spectrum system when the tumor reached at least 200 mm^3 volume. For each group, in vivo OI experiments were performed at 0.5, 1, 2, 3, 4, 6 and 24 hours after intravenous administration of the fluorescent compounds. During imaging experiments animals were maintained under gaseous anesthesia. Regions of interest (ROIs) were drawn on the tumor and on a reference background healthy region (hind limb muscle) of the mouse for each fluorescence image at every time point to evaluate signal intensity in the tissues (expressed as Average Radiant Efficiency). The ratio between the fluorescence signal in the tumor and in the background healthy tissue (tumor-to-background ratio, TBR) was then calculated to assess the contrast.
All the compounds of the invention and the References were tested at a dose of 1 nmol/mouse.

The target in series [6] is recombinant bovine CA-II enzyme (bCAII) (Bos taurus, UniProt P00921). Kind of series: Fluorescence-based dansylamide (DNSA) displacement assay on carbonic anhydrase catalytic site.
Chain of recombinant bovine CA-II enzyme (bCAII) (P00921 whole entry): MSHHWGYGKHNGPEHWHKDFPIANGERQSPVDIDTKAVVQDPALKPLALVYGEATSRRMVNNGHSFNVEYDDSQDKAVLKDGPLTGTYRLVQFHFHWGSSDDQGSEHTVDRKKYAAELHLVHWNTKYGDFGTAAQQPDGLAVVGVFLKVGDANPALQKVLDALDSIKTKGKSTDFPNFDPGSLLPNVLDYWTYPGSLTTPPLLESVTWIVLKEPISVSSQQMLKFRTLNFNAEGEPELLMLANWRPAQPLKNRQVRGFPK
Series [7] deals with T2, CA-IX expressing HT-29 cells (Homo sapiens, UniProt Q16790).
T2 construct: CA-IX, expressed in its physiological environment at the cell-surface; host or cells: HT-29 human colorectal adenocarcinoma cells
The experiment in a line: Cellular binding assessment by flow cytometry. Conditions: HT-29 cells, 1 hour 30 min on ice, flow cytometry; read-out: CA-IX receptor affinity (KD, nM to HT-29 cells). The protocol: Human colon adenocarcinoma HT-29 cells (ATCC) used for the cellular binding experiments were cultured in McCoy's 5A medium (Sigma-Aldrich), supplemented with 10% HyClone Fetal Clone III (Euroclone), 2 mM L-glutamine (Sigma-Aldrich), 100 IU/mL penicillin, 0.1 mg/mL streptomycin, 0.25 μg/mL amphotericin B (Antibiotic-Antimycotic solution, Life Technologies) and cells were grown at 37° C. in humidified atmosphere enriched with 5% CO2. DPBS without MgCl2 and CaCl2) (Sigma-Aldrich) was used for cell rinsing.
Indeed, by using the anti-human CA-IX antibody MAB2188 (R&D Systems) and the DAKO […], according to the instruction of the datasheet, HT-29 cells were estimated to express about 150,000 CA-IX molecules per cell. Thus, HT-29 cells were used to measure the binding of all compounds to CA-IX, expressed in its physiological environment at the cell-surface. Briefly, HT-29 cells were detached with StemPro® Accutase® Cell Dissociation Reagent (Life Technologies), collected in DPBS and counted. At least 2·10^5 HT-29 cells were placed in 1.5 mL tubes on ice and resuspended in 50-100 μL of cold FACS buffer (eBioscience™ Flow Cytometry Staining Buffer, Invitrogen) containing scalar concentrations of compounds (HF-1, reference 2, and compound 1: range 0-20 μM; reference 3: range 0-24 μM; compound 2: range 0-10 μM). After incubation (1 hour and 30 min on ice in the dark), cells were rinsed 3 times in 300 μL of cold FACS buffer by centrifugation (5 min, 4° C., 350 RCF), discarding the supernatant. Cell pellets were then resuspended in 200 μL of cold FACS buffer (or in an adequate volume in order to obtain no more than 1000 recorded events per μL during FACS analysis) and analyzed with the flow cytometer Accuri™ C6 (BD Biosciences). The mean cell-associated fluorescence was plotted against concentration and the dissociation constant at equilibrium (KD) was inferred by mathematical fitting with GraphPad Prism v.9 software, according to the following equation: […]
where Bmax is the maximum specific binding in the same units as Y; KD is the equilibrium dissociation constant, in the same units as X; NS is the slope of nonspecific binding in Y units divided by X units; and background is the amount of nonspecific binding with no added Compound.
All compounds were analyzed in at least three independent experiments.
Background: In flow cytometry, cells or beads pass a laser one at a time.

The conditions of series [8]: after injection into the patient; cited from earlier work.

As for `CC1(C)C(/C=C/C2=C(Oc3ccc(CCC(=O)NCCCCCCCC(=O)Nc4nnc(S(N)(=O)=O)s4)cc3)C(=C/C=C3/N(CCCCS(=O)(=O)O)c4ccc(S(=O)(=O)O)cc4C3(C)C)/CCC2)=[N+](CCCCS(=O)(=O)[O-])c2ccc(S(=O)(=O)O)cc21` [Reference 1], the “Max Em (nm, PBS pH 7.4)” value in series [1] (emission maximum, PBS pH 7.4) worked out at 798 nm. Further, the “Max Em (nm, Seronorm)” value in series [1] (emission maximum, Seronorm control serum) was 808 nm. In series [1] (excitation maximum, PBS pH 7.4), the “Max Ex (nm, PBS pH 7.4)” value stood at 772 nm. The “Max Ex (nm, Seronorm)” value in series [1] (excitation maximum, Seronorm control serum) stood at 792 nm. In series [2], the molar extinction coefficient (ε) is 255000 M⁻¹ cm⁻¹. Moreover, in series [3], the “Organ-to-muscle ratio, intestine (mean ± SD)” value is listed as 2.2 ± 1.3; the “Organ-to-muscle ratio, kidney (mean ± SD)” value amounted to 2.4 ± 0.3; the “Organ-to-muscle ratio, liver (mean ± SD)” value was found to be 5.7 ± 0.2; the “Organ-to-muscle ratio, skin (mean ± SD)” value was 1.4 ± 0.0. Besides, in series [3], the “Organ-to-muscle ratio, spleen (mean ± SD)” value was determined as 1.4 ± 0.3; the “Organ-to-muscle ratio, stomach (mean ± SD)” value was 4.0 ± 1.7; the “ex vivo TBR (mean ± SD), HT-29 tumor” value is 3.1 ± 0.3. Also, the Kd in series [4] is 6400 nM. Besides, in series [5], the “in vivo TBR (mean ± SD)” value is recorded as 1.8 ± 0.3.

As for `CC(=O)NC(CCCCn1cc(CCCC(=O)Nc2nnc(S(N)(=O)=O)s2)nn1)C(=O)NCCOCCOCCNC(=O)CCCCCN1/C(=C/C=C2\CCCC(/C=C/C3=[N+](CCCCS(=O)(=O)[O-])c4ccc(C(=O)NC[C@H](O)[C@@H](O)[C@H](O)[C@H](O)CO)cc4C3(C)C)=C2Oc2ccc(S(=O)(=O)O)cc2)C(C)(C)c2cc(C(=O)NC[C@H](O)[C@@H](O)[C@H](O)[C@H](O)CO)ccc21` (stereo partly shown) [Reference 2], in series [6], the Kd was determined as 55.8 ± 1.1 nM. Further, in series [3], the “Organ-to-muscle ratio, intestine (mean ± SD)” value came to 3.0 ± 0.3; the “Organ-to-muscle ratio, kidney (mean ± SD)” value was found to be 19.7 ± 2.2; the “Organ-to-muscle ratio, liver (mean ± SD)” value is listed as 6.2 ± 1.3; the “Organ-to-muscle ratio, skin (mean ± SD)” value was found to be 1.7 ± 0.4. In series [3], the “Organ-to-muscle ratio, spleen (mean ± SD)” value was found to be 1.7 ± 0.4; the “Organ-to-muscle ratio, stomach (mean ± SD)” value amounted to 6.1 ± 0.7; the “ex vivo TBR (mean ± SD), HT-29 tumor” value is listed as 9.2 ± 3.3. Moreover, the Kd in series [4] is 69900 nM. Further, the “in vivo TBR (mean ± SD)” value in series [5] worked out at 3.4 ± 0.6. In addition, the Kd in series [7] came to 349 ± 49 nM.

Consider `CC(=O)NC(CCCCn1cc(CCCC(=O)Nc2nnc(S(N)(=O)=O)s2)nn1)C(=O)NCCOCCOCCNC(=O)CCCCCN1/C(=C/C=C/C=C/C=C/C2=[N+](CCC(C)S(=O)(=O)[O-])c3ccc(C(=O)NC[C@H](O)[C@@H](O)[C@H](O)[C@H](O)CO)cc3C2(C)C)C(C)(C)c2cc(C(=O)NC[C@H](O)[C@@H](O)[C@H](O)[C@H](O)CO)ccc21` (stereo partly shown) [Reference 3], for which the Kd in series [6] worked out at 30.2 ± 1 nM. Further, in series [3], the “Organ-to-muscle ratio, intestine (mean ± SD)” value is recorded as 2.7 ± 0.9; the “Organ-to-muscle ratio, kidney (mean ± SD)” value was 15.8 ± 3.4; the “Organ-to-muscle ratio, liver (mean ± SD)” value is listed as 3.6 ± 1.0; the “Organ-to-muscle ratio, skin (mean ± SD)” value is 2.0 ± 0.5. Further, in series [3], the “Organ-to-muscle ratio, spleen (mean ± SD)” value is recorded as 1.2 ± 0.3; the “Organ-to-muscle ratio, stomach (mean ± SD)” value is reported as 6.7 ± 1.4; the “ex vivo TBR (mean ± SD), HT-29 tumor” value is 14.7 ± 2.3. The Kd in series [4] is 24000 nM. Moreover, the “in vivo TBR (mean ± SD)” value in series [5] amounted to 4.7 ± 0.6. The Kd in series [7] stood at 251 ± 44 nM.

For the molecule “^124I-cG250: chimeric version of monoclonal antibody G250 labeled with radionuclide 124I”, the “time after injection to reach tumor/blood ratios suitable for imaging” value in series [8] is 2 to 7 days.
